# Values quoted from earlier work as cited in patent US20150190322A1, “COMPOSITION, METHOD AND KIT FOR ENHANCING HAIR” (PHARMA PATENT HOLDING INC., priority 2009, published 2015).
# Settings: in some patients, during use for reduction of intraocular pressure
smiles,measurement,value
"CC(C)OC(=O)CCC/C=C\C[C@@H]1[C@@H](CC[C@@H](O)CCc2ccccc2)[C@H](O)C[C@@H]1O [Latanoprost, isopropyl-(Z)-7[(1R, 2R, 3R, 5S)3,5-dihydroxy-2-[(3R)-3-hydroxy-5-phenylp-entyl]cyclopentyl]-5-heptenoate]",pigmentation and growth of eyelashes,increasing pigmentation and growth of eyelashes
